From ChEMBL document CHEMBL4033751, “Synthesis and biological evaluation of caffeic acid derivatives as potent inhibitors of α-MSH-stimulated melanogenesis” (Bioorg Med Chem Lett, 2017)

Columns and labels:
[1] = Cytotoxicity in mouse B16 cells assessed as cell viability at 5 uM by MTT assay; type: cell-based; conditions: read-out: Activity
[2] = Cytotoxicity in mouse B16 cells assessed as cell viability at 10 uM by MTT assay; type: cell-based; conditions: read-out: Activity
B16 = assay: Inhibition of alpha-MSH-stimulated melanogenesis in mouse B16 cells assessed as reduction in melanin formation; type: functional, cell-based
[3] = Cytotoxicity in mouse B16 cells assessed as cell viability at 40 uM by MTT assay; type: cell-based; conditions: read-out: Activity
[4] = Cytotoxicity in mouse B16 cells assessed as cell viability at 20 uM by MTT assay; type: cell-based; conditions: read-out: Activity
[5] = Cytotoxicity in mouse B16 cells assessed as cell viability at 2.5 uM by MTT assay; type: cell-based; conditions: read-out: Activity

Compound: O=C(/C=C/c1ccc(O)c(O)c1)Nc1cccc([N+](=O)[O-])c1
- viability at 5 µM [1]: 24 to 35%
- viability at 10 µM [2]: 48%
- IC50 (B16): 1.9 µM

Compound: O=C(/C=C/c1ccc(O)c(O)c1)Nc1ccc([N+](=O)[O-])cc1
- viability at 5 µM [1]: 30 to 35%
- viability at 10 µM [2]: 51 to 62%
- IC50 (B16): 1.4 µM

Compound: O=C(/C=C/c1ccc(O)c(O)c1)Nc1ccccc1
- viability at 10 µM [2]: 21%
- IC50 (B16): 7.6 µM

Compound: O=C(CCc1ccc(O)c(O)c1)O[C@@H]1C[C@](O)(C(=O)O)C[C@@H](O)[C@H]1O
- IC50 (B16): > 40 µM

Compound: COc1ccc(CNC(=O)/C=C/c2ccc(O)c(O)c2)cc1
- viability at 40 µM [3]: 37 to 54%
- viability at 20 µM [4]: 20%
- IC50 (B16): 6.2 µM

Compound: O=C(/C=C/c1ccc(O)c(O)c1)N1CCNCC1
- viability at 20 µM [4]: 31%
- IC50 (B16): > 40 µM

Compound: O=C(/C=C/c1ccc(O)c(O)c1)NCc1ccccc1Cl
- viability at 40 µM [3]: 0%
- IC50 (B16): 6.5 µM

Compound: CCCCc1ccc(NC(=O)/C=C/c2ccc(O)c(O)c2)cc1
- viability at 5 µM [1]: 68 to 96%
- viability at 2.5 µM [5]: 33 to 49%
- IC50 (B16): 1.2 µM

Compound: O=C(/C=C/c1ccc(O)c(O)c1)NCc1ccc(C(F)(F)F)cc1
- viability at 5 µM [1]: 26%
- viability at 10 µM [2]: 39 to 48%
- IC50 (B16): 1.6 µM

Compound: O=C(/C=C/c1ccc(O)c(O)c1)NCc1ccc(Cl)cc1
- viability at 5 µM [1]: 23%
- viability at 10 µM [2]: 39 to 53%
- IC50 (B16): 1.8 µM

Compound: NS(=O)(=O)c1ccc(CNC(=O)/C=C/c2ccc(O)c(O)c2)cc1
- viability at 40 µM [3]: 0%
- IC50 (B16): > 40 µM

Compound: COc1ccccc1CNC(=O)/C=C/c1ccc(O)c(O)c1
- viability at 40 µM [3]: 35 to 46%
- viability at 20 µM [4]: 20%
- IC50 (B16): 7 µM

Compound: CC(C)(C)OC(=O)N1CCN(C(=O)/C=C/c2ccc(O)c(O)c2)CC1
- viability at 20 µM [4]: 31%
- IC50 (B16): 5.8 µM

Compound: Cc1ccccc1CNC(=O)/C=C/c1ccc(O)c(O)c1
- viability at 10 µM [2]: 25%
- viability at 20 µM [4]: 33 to 49%
- IC50 (B16): 20 µM

Compound: CC(C)c1ccc(NC(=O)/C=C/c2ccc(O)c(O)c2)cc1
- viability at 5 µM [1]: 15%
- viability at 10 µM [2]: 82%
- IC50 (B16): 3.4 µM

Compound: O=C(/C=C/c1ccc(O)c(O)c1)NC1CCCCC1
- viability at 10 µM [2]: 23%
- IC50 (B16): 2.8 µM

Compound: O=C(/C=C/c1ccc(O)c(O)c1)NCc1ccccc1C(F)(F)F
- viability at 5 µM [1]: 22 to 28%
- viability at 10 µM [2]: 33 to 49%
- IC50 (B16): 1.8 µM

Compound: O=C(/C=C/c1ccc(O)c(O)c1)NCc1cccc(C(F)(F)F)c1
- viability at 5 µM [1]: 24%
- viability at 10 µM [2]: 29 to 47%
- IC50 (B16): 1.4 µM

Compound: O=C(/C=C/c1ccc(O)c(O)c1)Nc1cccc(C(F)(F)F)c1
- viability at 5 µM [1]: 60 to 82%
- viability at 2.5 µM [5]: 22 to 36%
- IC50 (B16): 1.4 µM

Compound: O=C(/C=C/c1ccc(O)c(O)c1)NCc1cccc(Cl)c1
- viability at 10 µM [2]: 22%
- viability at 20 µM [4]: 59 to 62%
- IC50 (B16): 6 µM

Compound: O=C(/C=C/c1ccc(O)c(O)c1)NC1CCCC1
- viability at 40 µM [3]: 0%
- IC50 (B16): 30 µM

Compound: Cc1cccc(CNC(=O)/C=C/c2ccc(O)c(O)c2)c1
- viability at 10 µM [2]: 20%
- viability at 20 µM [4]: 45%
- IC50 (B16): 3 µM

Compound: O=C(/C=C/c1ccc(O)c(O)c1)Nc1ccc(C(F)(F)F)cc1
- viability at 5 µM [1]: 56 to 58%
- viability at 10 µM [2]: 77 to 90%
- IC50 (B16): 1.4 µM

Compound: Cc1ccc(CNC(=O)/C=C/c2ccc(O)c(O)c2)cc1
- viability at 10 µM [2]: 20%
- viability at 20 µM [4]: 22 to 30%
- IC50 (B16): 3.7 µM

Compound: CC(=O)Oc1ccc(/C=C/C(=O)OC2CCCCC2)cc1OC(C)=O
- viability at 2.5 µM [5]: 24%
- IC50 (B16): 0.2 µM

Compound: Cc1n[nH]c(NC(=O)/C=C/c2ccc(O)c(O)c2)c1-c1ccc(Br)cc1
- viability at 5 µM [1]: 68 to 93%
- viability at 2.5 µM [5]: 29 to 56%
- IC50 (B16): 1 µM

Compound: O=C(/C=C/c1ccc(O)c(O)c1)OC1CCCCC1
- viability at 10 µM [2]: 30%
- IC50 (B16): 7 µM

Compound: O=C(/C=C/c1ccc(O)c(O)c1)NCc1ccccc1
- viability at 10 µM [2]: 23%
- IC50 (B16): 8 µM

Compound: O=C(/C=C/c1ccc(O)c(O)c1)N1CCCCC1
- viability at 40 µM [3]: 0%
- IC50 (B16): 24 µM

Compound: OC[C@H]1O[C@@H](Oc2ccc(O)cc2)[C@H](O)[C@@H](O)[C@@H]1O [ARBUTIN]
- IC50 (B16): 400 µM

Compound: COC(=O)[C@]1(O)C[C@@H](O)[C@@H](O)[C@H](OC(=O)/C=C/c2ccc(O)c(O)c2)C1 [CHLOROGENIC ACID METHYL ESTER]
- IC50 (B16): > 40 µM

Compound: O=c1cc(CO)occ1O [KOJIC ACID]
- IC50 (B16): 57 µM
